# Experiments:
# Format in all cases: in vivo
# Abutilon theophrasti = test: Glasshouse assay for herbicidal activity, post-emergence, ABUTH; settings: Abutilon theophrasti, 312 h, visual 13 days after application, 100%=total damage, read-out: Percentage phytotoxicity ABUTH
# Procedure: (§1) Seeds of a variety of test plant species were sown in standard soil ** in pots. After cultivation for one day (pre-emergence) or after 8 days cultivation (post-emergence) under controlled conditions in a glasshouse (at 24/16° C., day/night; 14 hours light; 65% humidity), the plants were sprayed with an aqueous spray solution derived from the formulation of the technical active ingredient (the test herbicide) in acetone/water (50:50) solution containing 0.5% Tween 20 (polyoxyethylene sorbitan monolaurate, CAS Reg. No. 9005-64-5). The test plants were then grown on under controlled conditions in a glasshouse (at 24/16° C., day/night; 14 hours light; 65% humidity) and watered twice daily. 13 Days after application of the test herbicide, for pre- and post-emergence, the test was evaluated visually for percentage phytotoxicity to each plant (where 100%=total damage to plant; 0%=no damage to plant). Generally, each test herbicide is only tested on 1 plant per plant species for each application rate tested and for each application timing. The “standard soil” in Biological Example 1 is usually a “sand” or “sandy loam” type of soil. Biological Example 1—Post-Emergence Application—Herbicidal Activity Results (Percentage Phytotoxicity) Dicotyledonous weeds: ABUTH=Abutilon theophrasti; AMARE=Amaranthus retroflexus. Grassy monocotyledonous weeds: SETFA=Setaria faberi; ALOMY=Alopecurus myosuroides; ECHCG=Echinochloa crus-galli; ZEAMX=Zea mays (corn, maize, e.g. volunteer corn).
# Amaranthus retroflexus = test: Glasshouse assay for herbicidal activity, post-emergence, AMARE; settings: Amaranthus retroflexus, 312 h, visual 13 days after application, 100%=total damage, read-out: Percentage phytotoxicity AMARE
# Procedure: as §1
# Setaria faberi = test: Glasshouse assay for herbicidal activity, post-emergence, SETFA; settings: Setaria faberi, 312 h, visual 13 days after application, 100%=total damage, read-out: Percentage phytotoxicity SETFA
# Procedure: as §1
# Alopecurus myosuroides = test: Glasshouse assay for herbicidal activity, post-emergence, ALOMY; settings: Alopecurus myosuroides, 312 h, visual 13 days after application, 100%=total damage, read-out: Percentage phytotoxicity ALOMY
# Procedure: as §1
# Echinochloa crus-galli = test: Glasshouse assay for herbicidal activity, post-emergence, ECHCG; settings: Echinochloa crus-galli, 312 h, visual 13 days after application, 100%=total damage, read-out: Percentage phytotoxicity ECHCG
# Procedure: as §1
# [1] = test system: Zea mays (corn, maize, e.g. volunteer corn); test: Glasshouse assay for herbicidal activity, post-emergence, ZEAMX; settings: Zea mays, 312 h, visual 13 days after application, 100%=total damage, read-out: Percentage phytotoxicity ZEAMX
# Procedure: as §1
Structure (SMILES),pest or weed control at 250 g/ha (Abutilon theophrasti),pest or weed control at 250 g/ha (Amaranthus retroflexus),pest or weed control at 250 g/ha (Setaria faberi),pest or weed control at 250 g/ha (Alopecurus myosuroides),pest or weed control at 250 g/ha (Echinochloa crus-galli),pest or weed control at 250 g/ha [1],pest or weed control at 30 g/ha (Abutilon theophrasti),pest or weed control at 30 g/ha (Amaranthus retroflexus),pest or weed control at 30 g/ha (Setaria faberi),pest or weed control at 30 g/ha (Alopecurus myosuroides),pest or weed control at 30 g/ha (Echinochloa crus-galli),pest or weed control at 30 g/ha [1]
CC#Cc1ccc(C2=C(OC(=O)C(C)C)C3CCC(C3)C2=O)c(OC)c1 (centres unmarked) [Compound P10],70%,40%,90%,90%,100%,100%,–,–,–,–,–,–
CC#Cc1ccc(C2=C(OC(=O)c3ccccc3)C3CCC(C3)C2=O)c(OC)c1 (centres unmarked) [Compound P12],70%,20%,90%,100%,100%,100%,–,–,–,–,–,–
CC#Cc1ccc(C2=C(OS(C)(=O)=O)C3CCC(C3)C2=O)c(OC)c1 (centres unmarked) [Compound P16],40%,40%,70%,80%,90%,100%,–,–,–,–,–,–
CC#Cc1ccc(C2=C(OC(=O)Sc3ccccc3)C3CCC(C3)C2=O)c(OC)c1 (centres unmarked) [Compound P13],40%,60%,100%,90%,100%,100%,–,–,–,–,–,–
CC#Cc1ccc(C2C(=O)CC3(CCOCC3)CC2=O)c(OC)c1 [Compound A12],20%,30%,100%,100%,100%,100%,0%,0%,100%,90%,100%,100%
CC#Cc1ccc(C2C(=O)C3CCC(C3)C2=O)c(OC(F)(F)F)c1 (centres unmarked) [Compound A8],80%,10%,100%,100%,100%,100%,–,–,–,–,–,–
"C#CCOC1=C(c2ccc(C#CC)cc2OC)C(=O)C2CCC1C2 (centres unmarked) [Compound P2, 3-(2-methoxy-4-prop-1-ynyl-phenyl)-2-prop-2-ynoxy-bicyclo[3.2.1]oct-2-en-4-one]",0%,0%,80%,70%,90%,100%,–,–,–,–,–,–
CC#Cc1ccc(C2=C(OCOC)C3CCC(C3)C2=O)c(OC)c1 (centres unmarked) [Compound P4],10%,0%,100%,100%,100%,100%,–,–,–,–,–,–
CC#Cc1ccc(C2=C(OS(=O)(=O)CC)C3CCC(C3)C2=O)c(OC)c1 (centres unmarked) [Compound P17],70%,0%,80%,90%,90%,100%,–,–,–,–,–,–
CC#Cc1ccc(C2C(=O)C3CCC(C3)C2=O)c(OCCC)c1 (centres unmarked) [Compound A6],0%,0%,50%,–,70%,80%,0%,0%,10%,–,40%,40%
CC#Cc1ccc(C2=C(OC(=O)C(C)(C)C)C3CCC(C3)C2=O)c(OC)c1 (centres unmarked) [Compound P11],70%,20%,100%,90%,100%,100%,–,–,–,–,–,–
CC#Cc1ccc(C2C(=O)CC(CCSC)CC2=O)c(OC)c1 (centres unmarked) [Compound A9],40%,20%,90%,90%,90%,100%,20%,0%,80%,30%,80%,90%
"CC#Cc1ccc(C2C(=O)C3CCC(C3)C2=O)c(CCC)c1 (centres unmarked) [Compound A16, 3-(2-propyl-4-prop-1-ynyl-phenyl)bicyclo[3.2.1]octane-2,4-dione]",0%,0%,100%,100%,100%,100%,–,–,–,–,–,–
CC#Cc1ccc(C2C(=O)CCCC2=O)c(OC)c1 [Compound A10],10%,20%,70%,70%,30%,90%,0%,10%,60%,0%,20%,90%
CC#Cc1ccc(C2=C(OC(=O)OCC)C3CCC(C3)C2=O)c(OC)c1 (centres unmarked) [Compound P8],60%,20%,90%,90%,100%,100%,–,–,–,–,–,–
CC#Cc1ccc(C2=C(OC(=O)SC(C)C)C3CCC(C3)C2=O)c(OC)c1 (centres unmarked) [Compound P15],70%,10%,100%,90%,100%,100%,–,–,–,–,–,–
"CC#Cc1ccc(C2C(=O)C3CCC(C3)C2=O)c(OCCOC)c1 (centres unmarked) [Compound A15, 3-[2-(2-methoxyethoxy)-4-prop-1-ynyl-phenyl]bicyclo[3.2.1]octane-2,4-dione]",0%,0%,80%,20%,40%,80%,0%,0%,50%,10%,10%,40%
"CC#Cc1cc(OC)c(C2C(=O)CCCC2=O)c(OC)c1 [Compound A11, 2-(2,6-dimethoxy-4-prop-1-ynyl-phenyl)cyclohexane-1,3-dione]",0%,30%,100%,90%,100%,100%,0%,10%,100%,70%,100%,100%
CC#Cc1ccc(C2C(=O)C3CCC(C3)C2=O)c(CC)c1 (centres unmarked) [Compound A17],50%,0%,90%,100%,100%,100%,–,–,–,–,–,–
CC#Cc1ccc(C2C(=O)C3CCC(C3)C2=O)c(OCC)c1 (centres unmarked) [Compound A14],0%,0%,90%,–,100%,90%,0%,0%,50%,–,70%,70%

# Source: patent publication US10662138B2, “Herbicidal propynyl-phenyl compounds” (Syngenta Participations AG, priority 2014, dated 2020)
